Measurements reported in patent US20110196000A1, “Use of succinate dehydrogenase (SDH) inhibitors in the treatment of plant species from the family of the true grasses” (Bayer CropScience AG, priority 2010, published 2011).

Key:
Assay type in all cases: in vivo
[1] = test system: infection-free wheat plants of the cultivar Passat; assay: Glasshouse trial: yield components; conditions: for Ears/pot / Harvest Index / Kernels/ear / Straw / TKM (thousand-kernel mass) / Yield: glasshouse, sprays at BBCH 39 and 59
wheat variety Ritmo = assay: Plot trial: chlorophyll content of leaves (pigment extraction method of Ziegler and Ehle)
Wheat plants = assay: Effect of single and double bixafen treatment on leaf area; conditions: for Area [rel.] of the flag leaf / Area [rel.] of the leaf F-1: untreated = 100
Protocol: Trial procedure: Wheat plants were treated at different development stages with bixafen once or twice (125 g/ha each time), and a measurement was made of the respective size of the flag leaf and of the leaf F-1 at the time BBCH 75. For the destructive measurement of the leaf area, the leaves were removed from the plant. The non-destructive measurement was carried out on the intact leaf of the plant.

[2] = BBCH 75 (mature milk), leaf F-1
[3] = BBCH 75 (mature milk), leaf F-2
[4] = BBCH 85 (mature dough), leaf F-1
[5] = BBCH 85 (mature dough), leaf F-2
[6] = treated at BBCH 33 (125 g/ha), measured at BBCH 75, destructive
[7] = treated at BBCH 33 (125 g/ha), measured at BBCH 75, non-destructive
[8] = treated at BBCH 33 + 39 (125 g/ha each time), measured at BBCH 75, destructive
[9] = treated at BBCH 33 + 39 (125 g/ha each time), measured at BBCH 75, non-destructive
[10] = treated at BBCH 33 + 59 (125 g/ha each time), measured at BBCH 75, destructive
[11] = treated at BBCH 33 + 59 (125 g/ha each time), measured at BBCH 75, non-destructive
[12] = treated at BBCH 39 (125 g/ha), measured at BBCH 75, destructive
[13] = treated at BBCH 39 (125 g/ha), measured at BBCH 75, non-destructive
[14] = treated at BBCH 39 + 59 (125 g/ha each time), measured at BBCH 75, destructive
[15] = treated at BBCH 39 + 59 (125 g/ha each time), measured at BBCH 75, non-destructive
[16] = treated at BBCH 59 (125 g/ha), measured at BBCH 75, destructive
[17] = treated at BBCH 59 (125 g/ha), measured at BBCH 75, non-destructive

With `Cn1cc(C(=O)Nc2ccc(F)cc2-c2ccc(Cl)c(Cl)c2)c(C(F)F)n1` [Bixafen, N-(3′,4′-dichloro-5-fluoro-1,1′-biphenyl-2-yl)-3-(difluoromethyl)-1-methyl-1H-pyrazole-4-carboxamide] the “yield components compared with the other comparison fungicides” value ([1]; glasshouse trial, statement in words) was “a higher yield, a higher number of kernel/ear, a higher thousand-kernel mass and a lower straw fraction than the other comparison fungicides”, the Ears/pot [1] was 40.0 and the “Harvest Index” value [1] was 29.8%. The Kernels/ear [1] was 25.1, the Straw [1] was 88.5 g/pot and the “TKM (thousand-kernel mass)” value [1] was 37.5 g. It also gave a Yield [1] of 37.5 g/pot, a Chlorophyll content (wheat variety Ritmo; BBCH 75 (mature milk), leaf F) of 1763 µg/g and a Chlorophyll content (wheat variety Ritmo; [2]) of 1693 µg/g. For the same molecule, the Chlorophyll content (wheat variety Ritmo; [3]) was 1243 µg/g, the Chlorophyll content (wheat variety Ritmo; BBCH 85 (mature dough), leaf F) was 738 µg/g and the Chlorophyll content (wheat variety Ritmo; [4]) was 631 µg/g. For the same molecule, the Chlorophyll content (wheat variety Ritmo; [5]) was 404 µg/g, the “chlorophyll content and breakdown of chlorophyll” value (wheat variety Ritmo; alone or in combination with other active fungicidal ingredients, statement in words) was “the chlorophyll content overall is higher and the breakdown of chlorophyll is slower” and the “Area of the flag leaf” value (Wheat plants; [6]) was 32.13 cm^2. The “Area of the leaf F-1” value (Wheat plants; [6]) was 32.69 cm^2, the “Length of the flag leaf” value (Wheat plants; [6]) was 28.25 cm and the “Length of the leaf F-1” value (Wheat plants; [6]) was 30.58 cm. For the same molecule, the “Width of the flag leaf” value (Wheat plants; [6]) was 1.47 cm, the “Width of the leaf F-1” value (Wheat plants; [6]) was 1.35 cm and the “Area [rel.] of the flag leaf” value (Wheat plants; [6]) was 115 rel. For the same molecule, the “Area [rel.] of the leaf F-1” value (Wheat plants; [6]) was 119 rel, the “Area of the flag leaf” value (Wheat plants; [7]) was 35.23 cm^2 and the “Length of the flag leaf” value (Wheat plants; [7]) was 25.11 cm. The “Width of the flag leaf” value (Wheat plants; [7]) was 1.66 cm, the “Area [rel.] of the flag leaf” value (Wheat plants; [7]) was 109 rel and the “Area of the flag leaf” value (Wheat plants; [8]) was 29.38 cm^2. The “Area of the leaf F-1” value (Wheat plants; [8]) was 28.42 cm^2, the “Length of the flag leaf” value (Wheat plants; [8]) was 24.49 cm and the “Length of the leaf F-1” value (Wheat plants; [8]) was 27.68 cm. For the same molecule, the “Width of the flag leaf” value (Wheat plants; [8]) was 1.40 cm, the “Width of the leaf F-1” value (Wheat plants; [8]) was 1.27 cm and the “Area [rel.] of the flag leaf” value (Wheat plants; [8]) was 105 rel. The “Area [rel.] of the leaf F-1” value (Wheat plants; [8]) was 103 rel, the “Area of the flag leaf” value (Wheat plants; [9]) was 35.37 cm^2 and the “Length of the flag leaf” value (Wheat plants; [9]) was 24.49 cm. For the same molecule, the “Width of the flag leaf” value (Wheat plants; [9]) was 1.76 cm, the “Area [rel.] of the flag leaf” value (Wheat plants; [9]) was 109 rel and the “Area of the flag leaf” value (Wheat plants; [10]) was 31.28 cm^2. The “Area of the leaf F-1” value (Wheat plants; [10]) was 30.07 cm^2, the “Length of the flag leaf” value (Wheat plants; [10]) was 27.10 cm and the “Length of the leaf F-1” value (Wheat plants; [10]) was 29.77 cm. For the same molecule, the “Width of the flag leaf” value (Wheat plants; [10]) was 1.51 cm, the “Width of the leaf F-1” value (Wheat plants; [10]) was 1.30 cm and the “Area [rel.] of the flag leaf” value (Wheat plants; [10]) was 112 rel. The “Area [rel.] of the leaf F-1” value (Wheat plants; [10]) was 109 rel, the “Area of the flag leaf” value (Wheat plants; [11]) was 37.41 cm^2 and the “Length of the flag leaf” value (Wheat plants; [11]) was 25.83 cm. The “Width of the flag leaf” value (Wheat plants; [11]) was 1.73 cm, the “Area [rel.] of the flag leaf” value (Wheat plants; [11]) was 115 rel and the “Area of the flag leaf” value (Wheat plants; [12]) was 29.04 cm^2. For the same molecule, the “Area of the leaf F-1” value (Wheat plants; [12]) was 28.37 cm^2, the “Length of the flag leaf” value (Wheat plants; [12]) was 25.81 cm and the “Length of the leaf F-1” value (Wheat plants; [12]) was 28.27 cm. For the same molecule, the “Width of the flag leaf” value (Wheat plants; [12]) was 1.40 cm, the “Width of the leaf F-1” value (Wheat plants; [12]) was 1.19 cm and the “Area [rel.] of the flag leaf” value (Wheat plants; [12]) was 104 rel. For the same molecule, the “Area [rel.] of the leaf F-1” value (Wheat plants; [12]) was 103 rel, the “Area of the flag leaf” value (Wheat plants; [13]) was 34.86 cm^2 and the “Length of the flag leaf” value (Wheat plants; [13]) was 24.21 cm. The “Width of the flag leaf” value (Wheat plants; [13]) was 1.72 cm, the “Area [rel.] of the flag leaf” value (Wheat plants; [13]) was 108 rel and the “Area of the flag leaf” value (Wheat plants; [14]) was 32.44 cm^2. The “Area of the leaf F-1” value (Wheat plants; [14]) was 30.28 cm^2, the “Length of the flag leaf” value (Wheat plants; [14]) was 26.57 cm and the “Length of the leaf F-1” value (Wheat plants; [14]) was 29.38 cm. The “Width of the flag leaf” value (Wheat plants; [14]) was 1.52 cm, the “Width of the leaf F-1” value (Wheat plants; [14]) was 1.20 cm and the “Area [rel.] of the flag leaf” value (Wheat plants; [14]) was 116 rel. The “Area [rel.] of the leaf F-1” value (Wheat plants; [14]) was 110 rel, the “Area of the flag leaf” value (Wheat plants; [15]) was 39.44 cm^2 and the “Length of the flag leaf” value (Wheat plants; [15]) was 26.83 cm. For the same molecule, the “Width of the flag leaf” value (Wheat plants; [15]) was 1.77 cm, the “Area [rel.] of the flag leaf” value (Wheat plants; [15]) was 122 rel and the “Area of the flag leaf” value (Wheat plants; [16]) was 32.37 cm^2. For the same molecule, the “Area of the leaf F-1” value (Wheat plants; [16]) was 30.55 cm^2, the “Length of the flag leaf” value (Wheat plants; [16]) was 26.58 cm and the “Length of the leaf F-1” value (Wheat plants; [16]) was 31.10 cm. For the same molecule, the “Width of the flag leaf” value (Wheat plants; [16]) was 1.47 cm, the “Width of the leaf F-1” value (Wheat plants; [16]) was 1.26 cm and the “Area [rel.] of the flag leaf” value (Wheat plants; [16]) was 116 rel. The “Area [rel.] of the leaf F-1” value (Wheat plants; [16]) was 111 rel, the “Area of the flag leaf” value (Wheat plants; [17]) was 37.91 cm^2 and the “Length of the flag leaf” value (Wheat plants; [17]) was 23.78 cm. For the same molecule, the “Width of the flag leaf” value (Wheat plants; [17]) was 2.02 cm and the “Area [rel.] of the flag leaf” value (Wheat plants; [17]) was 117 rel.

`OC(Cc1ccccc1Cl)(Cn1nc[nH]c1=S)C1(Cl)CC1` (centres unmarked) [Prothioconazole] was tested, and the Ears/pot [1] was 43.1, the “Harvest Index” value [1] was 27.3% and the Kernels/ear [1] was 22.2. The Straw [1] was 85.4 g/pot, the “TKM (thousand-kernel mass)” value [1] was 33.5 g and the Yield [1] was 32.1 g/pot. For the same molecule, the Chlorophyll content (wheat variety Ritmo; BBCH 75 (mature milk), leaf F) was 1740 µg/g, the Chlorophyll content (wheat variety Ritmo; [2]) was 1637 µg/g and the Chlorophyll content (wheat variety Ritmo; [3]) was 1207 µg/g. The Chlorophyll content (wheat variety Ritmo; BBCH 85 (mature dough), leaf F) was 211 µg/g, the Chlorophyll content (wheat variety Ritmo; [4]) was 163 µg/g and the Chlorophyll content (wheat variety Ritmo; [5]) was 116 µg/g.
